Article PMC5218480 (PLoS ONE, 2017)

System: MV-4-11 cells
Assay: Gene expression microarray analysis (Affymetrix PrimeView) and GSEA
Type: cell-based, human
Set-up: RFU PODN (11730768_x_at) / Fold change /veh PODN (11730768_x_at) / RFU LINC00158 (11744669_a_at) / Fold change /veh LINC00158 (11744669_a_at) / RFU DUSP10 (11751237_a_at) / Fold change /veh DUSP10 (11751237_a_at) / RFU ID3 (11757404_x_at) / Fold change /veh ID3 (11757404_x_at) / RFU PLEKHG5 (11737974_s_at) / Fold change /veh PLEKHG5 (11737974_s_at) / RFU LRRC4B (11730491_at) / Fold change /veh LRRC4B (11730491_at) / RFU GIMAP4 (11747438_a_at) / Fold change /veh GIMAP4 (11747438_a_at) / RFU KRT8 (11758183_x_at) / Fold change /veh KRT8 (11758183_x_at) / RFU CNN1 (11734310_a_at) / Fold change /veh CNN1 (11734310_a_at) / RFU VPS37D (11726825_at) / Fold change /veh VPS37D (11726825_at) / RFU C10orf10 (11716522_x_at) / Fold change /veh C10orf10 (11716522_x_at) / RFU KIR2DL2 /// KIR2DL4 /// KIR2DL5A /// KIR2DL5B /// KIR2DS1 /// KIR2DS2 /// KIR2DS3 /// KIR2DS4 /// KIR3DL3 /// KIR3DL3 /// KIR3DS1 (11738374_at) / Fold change /veh KIR2DL2 /// KIR2DL4 /// KIR2DL5A /// KIR2DL5B /// KIR2DS1 /// KIR2DS2 /// KIR2DS3 /// KIR2DS4 /// KIR3DL3 /// KIR3DL3 /// KIR3DS1 (11738374_at) / RFU C1QL1 (11718748_at) / Fold change /veh C1QL1 (11718748_at) / RFU TMPRSS4 (11747572_a_at) / Fold change /veh TMPRSS4 (11747572_a_at) / RFU HAMP (11756126_x_at) / Fold change /veh HAMP (11756126_x_at) / RFU RNFT2 (11725882_a_at) / Fold change /veh RNFT2 (11725882_a_at) / RFU NR4A2 (11747474_a_at) / Fold change /veh NR4A2 (11747474_a_at) / RFU ABCC12 (11746883_a_at) / Fold change /veh ABCC12 (11746883_a_at) / RFU TMEM136 (11760407_x_at) / Fold change /veh TMEM136 (11760407_x_at) / RFU CLDN22 /// WWC2 (11732394_at) / Fold change /veh CLDN22 /// WWC2 (11732394_at) / RFU HLA-DPB1 (11760878_x_at) / Fold change /veh HLA-DPB1 (11760878_x_at) / RFU SPINT1 (11716480_a_at) / Fold change /veh SPINT1 (11716480_a_at) / RFU GAP43 (11754022_s_at) / Fold change /veh GAP43 (11754022_s_at) / RFU A4GNT (11735810_at) / Fold change /veh A4GNT (11735810_at) / RFU PRB3 (11715151_x_at) / Fold change /veh PRB3 (11715151_x_at) / RFU TUBB4B (11761932_at) / Fold change /veh TUBB4B (11761932_at) / RFU CAPN14 (11732068_a_at) / Fold change /veh CAPN14 (11732068_a_at) / RFU TMCC2 (11721928_a_at) / Fold change /veh TMCC2 (11721928_a_at) / RFU IRGQ (11745062_a_at) / Fold change /veh IRGQ (11745062_a_at) / RFU FAM174B (11720279_a_at) / Fold change /veh FAM174B (11720279_a_at) / RFU TMPRSS4 (11748680_a_at) / Fold change /veh TMPRSS4 (11748680_a_at) / RFU FAM212B (11763350_a_at) / Fold change /veh FAM212B (11763350_a_at) / RFU PLEKHG5 (11743358_a_at) / Fold change /veh PLEKHG5 (11743358_a_at) / RFU ZSCAN30 (11745921_a_at) / Fold change /veh ZSCAN30 (11745921_a_at) / RFU CMKLR1 (11741424_a_at) / Fold change /veh CMKLR1 (11741424_a_at) / RFU LOC101060620 /// MAPK8IP1 (11723275_at) / Fold change /veh LOC101060620 /// MAPK8IP1 (11723275_at) / RFU SPTSSB (11747773_x_at) / Fold change /veh SPTSSB (11747773_x_at) / RFU PRSS12 (11739890_at) / Fold change /veh PRSS12 (11739890_at) / RFU BIN1 (11741810_x_at) / Fold change /veh BIN1 (11741810_x_at) / RFU WNT11 (11732464_a_at) / Fold change /veh WNT11 (11732464_a_at) / RFU C10orf10 (11716521_a_at) / Fold change /veh C10orf10 (11716521_a_at) / RFU C5orf56 (11738089_at) / Fold change /veh C5orf56 (11738089_at) / RFU CYB561 (11721691_x_at) / Fold change /veh CYB561 (11721691_x_at) / RFU ANKRD19P (11752326_a_at) / Fold change /veh ANKRD19P (11752326_a_at) / RFU OR2T12 /// OR2T33 /// OR2T8 (11738714_s_at) / Fold change /veh OR2T12 /// OR2T33 /// OR2T8 (11738714_s_at) / RFU VCAN (11748164_a_at) / Fold change /veh VCAN (11748164_a_at) / RFU JSRP1 (11732532_at) / Fold change /veh JSRP1 (11732532_at) / RFU KRTAP10-11 (11738290_x_at) / Fold change /veh KRTAP10-11 (11738290_x_at) / RFU MYO3A (11730013_a_at) / Fold change /veh MYO3A (11730013_a_at) / RFU EBF3 (11725865_a_at) / Fold change /veh EBF3 (11725865_a_at) / RFU CAMK2N1 (11719241_x_at) / Fold change /veh CAMK2N1 (11719241_x_at) / RFU C5orf56 (11738088_a_at) / Fold change /veh C5orf56 (11738088_a_at) / RFU OLFML3 (11715873_a_at) / Fold change /veh OLFML3 (11715873_a_at) / RFU LOC100653217 /// NTM (11731650_a_at) / Fold change /veh LOC100653217 /// NTM (11731650_a_at) / RFU MAPK11 (11762145_a_at) / Fold change /veh MAPK11 (11762145_a_at) / RFU FIZ1 (11724087_x_at) / Fold change /veh FIZ1 (11724087_x_at) / RFU OASL (11726364_x_at) / Fold change /veh OASL (11726364_x_at) / RFU SOX15 (11748057_x_at) / Fold change /veh SOX15 (11748057_x_at) / RFU CD79A (11719716_a_at) / Fold change /veh CD79A (11719716_a_at) / RFU HIST1H1D (11736915_at) / Fold change /veh HIST1H1D (11736915_at) / RFU CASKIN2 (11723855_a_at) / Fold change /veh CASKIN2 (11723855_a_at) / RFU LOC730098 (11760151_x_at) / Fold change /veh LOC730098 (11760151_x_at) / RFU OR4N2 (11742367_at) / Fold change /veh OR4N2 (11742367_at) / RFU PRRT2 (11749266_a_at) / Fold change /veh PRRT2 (11749266_a_at) / RFU SNX32 (11753110_a_at) / Fold change /veh SNX32 (11753110_a_at) / RFU CDHR5 (11726645_a_at) / Fold change /veh CDHR5 (11726645_a_at) / RFU RCAN1 (11760418_a_at) / Fold change /veh RCAN1 (11760418_a_at) / RFU FAM167A (11723789_a_at) / Fold change /veh FAM167A (11723789_a_at) / RFU FAM26E (11764081_at) / Fold change /veh FAM26E (11764081_at) / RFU ISYNA1 (11749810_s_at) / Fold change /veh ISYNA1 (11749810_s_at) / RFU ACY1 (11761880_at) / Fold change /veh ACY1 (11761880_at) / RFU 11764098_at / Fold change /veh 11764098_at / RFU SAMD14 (11745864_x_at) / Fold change /veh SAMD14 (11745864_x_at) / RFU NPB (11741838_a_at) / Fold change /veh NPB (11741838_a_at) / RFU TMPRSS6 (11731388_a_at) / Fold change /veh TMPRSS6 (11731388_a_at) / RFU KRTAP10-2 (11738614_at) / Fold change /veh KRTAP10-2 (11738614_at) / RFU ARHGAP8 /// PRR5-ARHGAP8 (11727945_x_at) / Fold change /veh ARHGAP8 /// PRR5-ARHGAP8 (11727945_x_at) / RFU KRTAP5-7 /// NADSYN1 (11734609_at) / Fold change /veh KRTAP5-7 /// NADSYN1 (11734609_at) / RFU RASL12 (11751679_a_at) / Fold change /veh RASL12 (11751679_a_at) / RFU CDKN2B (11736163_a_at) / Fold change /veh CDKN2B (11736163_a_at) / RFU PRF1 (11729649_at) / Fold change /veh PRF1 (11729649_at) / RFU, ZNF638 /// ZNF638-IT1 / Fold change vs veh, ZNF638 /// ZNF638-IT1 / RFU, PANK3 / Fold change vs veh, PANK3 / RFU, SH3YL1 / Fold change vs veh, SH3YL1 / RFU, ZEB2 / Fold change vs veh, ZEB2 / RFU, NRIP1 / Fold change vs veh, NRIP1 / RFU, PTTG1IP / Fold change vs veh, PTTG1IP / RFU, CAPN2 / Fold change vs veh, CAPN2 / RFU, MED14 / Fold change vs veh, MED14 / RFU, SNORA58 / Fold change vs veh, SNORA58 / RFU, C1orf63 / Fold change vs veh, C1orf63 / RFU, LRRFIP1 / Fold change vs veh, LRRFIP1 / RFU, NDUFAF7 / Fold change vs veh, NDUFAF7 / RFU, SLC12A2 / Fold change vs veh, SLC12A2 / RFU, IBTK / Fold change vs veh, IBTK / RFU, ESF1 / Fold change vs veh, ESF1 / Fold change vs veh, TMEM50B / RFU, TAOK1 / Fold change vs veh, TAOK1 / RFU, ACBD3 / Fold change vs veh, ACBD3 / RFU, TMA16 / Fold change vs veh, TMA16 / RFU, RWDD3 / Fold change vs veh, RWDD3 / RFU, BCAT1 / Fold change vs veh, BCAT1 / RFU, EDEM3 / Fold change vs veh, EDEM3 / RFU, TMEM33 / Fold change vs veh, TMEM33 / RFU, WDR75 / Fold change vs veh, WDR75 / RFU, AHCTF1 / Fold change vs veh, AHCTF1 / RFU, TFRC / Fold change vs veh, TFRC / RFU, ZDHHC17 / Fold change vs veh, ZDHHC17 / RFU, NOM1 / Fold change vs veh, NOM1 / RFU, ARL8B / Fold change vs veh, ARL8B / RFU, ZBTB11 / Fold change vs veh, ZBTB11 / RFU, TAMM41 / Fold change vs veh, TAMM41 / RFU, KIAA1704 /// LOC100996395 / Fold change vs veh, KIAA1704 /// LOC100996395 / RFU, ING1 / Fold change vs veh, ING1 / RFU, TRMT61B / Fold change vs veh, TRMT61B / RFU, FUBP3 / Fold change vs veh, FUBP3 / RFU, TP53 / Fold change vs veh, TP53 / RFU, TNKS2 / Fold change vs veh, TNKS2 / RFU, ZFP14 / Fold change vs veh, ZFP14 / RFU, ACTR2 / Fold change vs veh, ACTR2 / RFU, PPP3R1 / Fold change vs veh, PPP3R1 / RFU, PIK3R1 / Fold change vs veh, PIK3R1 / RFU, HNRNPA1 / Fold change vs veh, HNRNPA1 / RFU, RNF170 / Fold change vs veh, RNF170 / RFU, ZNF28 / Fold change vs veh, ZNF28 / RFU, RNGTT / Fold change vs veh, RNGTT / RFU, OGT / Fold change vs veh, OGT / RFU, BRD1 / Fold change vs veh, BRD1 / RFU, MARS / Fold change vs veh, MARS / RFU, ZNF655 / Fold change vs veh, ZNF655 / RFU, FAHD1 / Fold change vs veh, FAHD1 / RFU, BDP1 / Fold change vs veh, BDP1 / RFU, LRRCC1 / Fold change vs veh, LRRCC1 / RFU, ARID1A / Fold change vs veh, ARID1A / RFU, ZNF146 / Fold change vs veh, ZNF146 / RFU, ZNF330 / Fold change vs veh, ZNF330 / RFU, GPN3 / Fold change vs veh, GPN3 / RFU, C9orf123 / Fold change vs veh, C9orf123 / RFU, N4BP2L2 / Fold change vs veh, N4BP2L2 / RFU, ARFIP1 / Fold change vs veh, ARFIP1 / RFU, FAM179B / Fold change vs veh, FAM179B / RFU, BCL10 / Fold change vs veh, BCL10 / RFU, UHRF1BP1L / Fold change vs veh, UHRF1BP1L / RFU, BET1 / Fold change vs veh, BET1 / RFU, CNOT2 / Fold change vs veh, CNOT2 / RFU, ZNF268 / Fold change vs veh, ZNF268 / Fold change vs veh, ZNF507 / RFU, DGCR2 / Fold change vs veh, DGCR2 / RFU, WDSUB1 / Fold change vs veh, WDSUB1 / Fold change vs veh, HSP90B1 /// MIR3652 / RFU, ADSS / Fold change vs veh, ADSS / RFU, GK / Fold change vs veh, GK / RFU, ZNF148 / Fold change vs veh, ZNF148 / RFU, TAF9 / Fold change vs veh, TAF9 / RFU, SLC1A5 / Fold change vs veh, SLC1A5 / RFU, SLMO2 / Fold change vs veh, SLMO2 / RFU, ABCC4 / Fold change vs veh, ABCC4 / RFU, LOC101060439 /// RAP1B / Fold change vs veh, LOC101060439 /// RAP1B / RFU, RFX7 / Fold change vs veh, RFX7 / RFU, GTPBP10 / Fold change vs veh, GTPBP10 / RFU, CNEP1R1 / Fold change vs veh, CNEP1R1 / RFU, BIVM-ERCC5 /// ERCC5 / Fold change vs veh, BIVM-ERCC5 /// ERCC5 / RFU, ILF3 / Fold change vs veh, ILF3 / RFU 11762660_at / Fold change /veh 11762660_at / RFU VCAN (11757783_s_at) / Fold change /veh VCAN (11757783_s_at) / RFU DDX43 (11728927_at) / Fold change /veh DDX43 (11728927_at) / RFU KRT8 (11758188_x_at) / Fold change /veh KRT8 (11758188_x_at) / RFU NKD1 (11759106_at) / Fold change /veh NKD1 (11759106_at) / RFU SRD5A1 (11742802_a_at) / Fold change /veh SRD5A1 (11742802_a_at) / RFU TPSAB1 /// TPSB2 (11721975_s_at) / Fold change /veh TPSAB1 /// TPSB2 (11721975_s_at) / RFU GSTM3 (11746129_a_at) / Fold change /veh GSTM3 (11746129_a_at) / RFU IL23R (11737362_x_at) / Fold change /veh IL23R (11737362_x_at) / RFU TMEM51 (11727254_a_at) / Fold change /veh TMEM51 (11727254_a_at) / RFU PIWIL2 (11732686_x_at) / Fold change /veh PIWIL2 (11732686_x_at) / RFU ORM1 (11744905_x_at) / Fold change /veh ORM1 (11744905_x_at) / RFU CCDC152 (11743942_at) / Fold change /veh CCDC152 (11743942_at) / RFU ECM1 (11717891_a_at) / Fold change /veh ECM1 (11717891_a_at) / RFU IL23R (11748794_a_at) / Fold change /veh IL23R (11748794_a_at) / RFU TNFAIP8L3 (11732012_x_at) / Fold change /veh TNFAIP8L3 (11732012_x_at) / RFU MBOAT4 (11741988_at) / Fold change /veh MBOAT4 (11741988_at) / RFU 11764193_at / Fold change /veh 11764193_at / RFU TMEM53 (11763286_at) / Fold change /veh TMEM53 (11763286_at) / RFU MAGEB2 (11727129_at) / Fold change /veh MAGEB2 (11727129_at) / RFU TMEM200A (11744735_a_at) / Fold change /veh TMEM200A (11744735_a_at) / RFU CCDC152 (11751479_a_at) / Fold change /veh CCDC152 (11751479_a_at) / RFU FAM211A (11726209_a_at) / Fold change /veh FAM211A (11726209_a_at) / RFU RGS16 (11746705_a_at) / Fold change /veh RGS16 (11746705_a_at) / RFU VCAN (11755009_s_at) / Fold change /veh VCAN (11755009_s_at) / RFU RHOB (11743442_s_at) / Fold change /veh RHOB (11743442_s_at) / RFU RGS16 (11720943_a_at) / Fold change /veh RGS16 (11720943_a_at) / RFU RGS16 (11720944_at) / Fold change /veh RGS16 (11720944_at) / RFU, VPS4B / Fold change vs veh, VPS4B / RFU, CREB1 / Fold change vs veh, CREB1 / RFU, DNAJC13 / Fold change vs veh, DNAJC13 / RFU, GNAQ / Fold change vs veh, GNAQ / RFU, CDK5R1 / Fold change vs veh, CDK5R1 / RFU, ZRANB3 / Fold change vs veh, ZRANB3 / RFU, CUL4A / Fold change vs veh, CUL4A / RFU, CCNY / Fold change vs veh, CCNY / RFU, UFL1 / Fold change vs veh, UFL1 / RFU, COG3 / Fold change vs veh, COG3 / RFU, DIAPH2 / Fold change vs veh, DIAPH2 / RFU, SKA2 / Fold change vs veh, SKA2 / RFU, AFF3 / Fold change vs veh, AFF3 / RFU, LMF1 / Fold change vs veh, LMF1 / RFU, IPO11 / Fold change vs veh, IPO11 / RFU, DFFB / Fold change vs veh, DFFB / RFU, FOXP1 / Fold change vs veh, FOXP1 / RFU, CARD8 / Fold change vs veh, CARD8 / RFU, STRN3 / Fold change vs veh, STRN3 / RFU, ADK / Fold change vs veh, ADK / RFU, RASSF2 / Fold change vs veh, RASSF2 / RFU, WIPF1 / Fold change vs veh, WIPF1 / RFU, LARP1B / Fold change vs veh, LARP1B / RFU, RASA1 / Fold change vs veh, RASA1 / RFU, RB1 / Fold change vs veh, RB1 / RFU, PPFIA1 / Fold change vs veh, PPFIA1 / RFU, MAT2A / Fold change vs veh, MAT2A / RFU, CCT5 / Fold change vs veh, CCT5 / RFU, WDR92 / Fold change vs veh, WDR92 / RFU, CUX1 / Fold change vs veh, CUX1 / RFU, TTC7A / Fold change vs veh, TTC7A / RFU, TMEM135 / Fold change vs veh, TMEM135 / RFU, DEPTOR / Fold change vs veh, DEPTOR / RFU, CPM / Fold change vs veh, CPM / RFU, DNAJB6 / Fold change vs veh, DNAJB6 / RFU, CACNA2D3 / Fold change vs veh, CACNA2D3 / RFU, DTX4 / Fold change vs veh, DTX4 / RFU, TFCP2 / Fold change vs veh, TFCP2 / RFU, GMCL1 /// GMCL1P1 / Fold change vs veh, GMCL1 /// GMCL1P1 / RFU, AEBP2 / Fold change vs veh, AEBP2 / RFU, SNHG1 /// SNORD22 /// SNORD25 /// SNORD26 /// SNORD27 /// SNORD28 /// SNORD29 /// SNORD31 / Fold change vs veh, SNHG1 /// SNORD22 /// SNORD25 /// SNORD26 /// SNORD27 /// SNORD28 /// SNORD29 /// SNORD31 / Fold change (Aza/veh), C12orf56 (ProbeSet 11735607_a_at) / Fold change (ACY-1035/veh), C12orf56 (ProbeSet 11735607_a_at) / Fold change (Aza/veh), FGFR1OP (ProbeSet 11751329_s_at) / Fold change (ACY-1035/veh), FGFR1OP (ProbeSet 11751329_s_at) / Fold change (Aza/veh), VPS36 (ProbeSet 11739960_a_at) / Fold change (ACY-1035/veh), VPS36 (ProbeSet 11739960_a_at) / RFU SYPL1 (11715823_x_at) / Fold change /veh SYPL1 (11715823_x_at) / RFU IGFBP7 (11715501_s_at) / Fold change /veh IGFBP7 (11715501_s_at) / RFU REEP3 (11722064_at) / Fold change /veh REEP3 (11722064_at) / RFU IGLL1 (11728026_x_at) / Fold change /veh IGLL1 (11728026_x_at): dose or concentration left out as unconfirmed
Conditions: MV-4-11 cells, 48 hours

Nc1ncn([C@@H]2O[C@H](CO)[C@@H](O)[C@H]2O)c(=O)n1 [azacitidine]
RFU TMPRSS4 (11748680_a_at): 47.70 RFU
